Assay results: US20140079775A1, “AGENTS TO TREAT/PREVENT AMOEBIASIS” (priority 2011, published 2014)
Like-named read-outs stand apart in the source and are kept apart here.

Test system: E. histolytica mediated cytotoxicity on HT-29 cell layers
Assay type: cell-based, Entamoeba histolytica
Settings: for protection of the cell layer (in words): physiologically relevant concentrations of individual HMO
Procedure: FIG. 2 HMO prevent E. histolytica mediated cytotoxicity in in vitro co-culture with enterocytes. Representative images of methylene blue stained HT-29 cell layers as such (A, left) or cocultured with HM-1 trophozoites in the absence (A, middle) or presence (A, right) of 10 mg/ml HMO. Dose response curve with different concentrations of HMO (B). The O.D 660 nm of methyleneblue cell layers was used as a measure for cytotoxicity. The cytoprotective effect of HMO was calculated as the percent ‘cell rescue’ compared to the untreated coculture (0%). Results are means SEM of 4 independent experiments. Cocultures were incubated with different glycans and cytotoxicity was determined as described above (C). […] HMO rescues cell layers when added to existing cocultures (D). HT-29 cells were cocultured with HM-1 and 20 mg/ml HMO was added at the indicated times of coculture. Cocultures were stopped and cytotoxicity was determined after 2 hrs. Control cell layers were cocultured for 2 hrs in the absence of HMO and were considered to have 0% cell rescue.
FIG. 3 Protection of the HT-29 monolayer by individual HMO. Cell rescue in co-culture treated with physiologically relevant concentrations of individual HMO (A). Symbols represent structures of individual HMO. Cell survival in the presence of equimolar concentrations of LNT, LNFP1 and a mixture of LNFP1, LNFP2, and LNFP3. […] Cytotoxicity assay with 10 mM 2′FL before and after fucosidase digestion (C). 2′FL left untreated or incubated with alpha1, 2 fucosidase was used in cytotoxicity assay. As controls, we used enzyme reaction buffer with inactivated fucosidase (control); equimolar concentrations (10 mM) of Lac, Fuc, or Fuc and Lac combined. Data from cytotoxicity assays are presented as % cell rescue compared to untreated cocultures (0%). Error bars are SEM, stars indicate statistical significance compared to control unless indicated by bars.
FIG. 4 GOS reduces cytotoxicity of trophozoites independent of its lactose content. Cell rescue in cocultures treated with increasing concentrations of GOS (triangles) or its corresponding lactose content (circles)(A). Cytotoxicity assay with GOS fractions (B). Higher numbered (eluted later) fractions contain lower molecular weight carbohydrates. The lactose content of fractions 11 and 12 is indicated above the respective bars. HPLC chromatogram of the original GOS preparation (20% lactose) (upper panel) and of the lactose free GOS (<0.5%) (C). Cytotoxicity assay with increasing concentrations of lactose-free GOS (triangles) and Lac-containing GOS (circles)(D).
HMO prevent enterocyte cytotoxicity by E. histolytica in in vitro cocultures. Previous studies have shown reduced Entamoeba attachment and cytotoxicity in the presence of selected carbohydrates (Cano-Mancera and Lopez-Revilla, 1987; Ravdin and Guerrant, 1981; Bracha and Mirelman, 1984). We tested the effect of HMO on Entamoeba induced cytotoxicity in in vitro cocultures with HT-29 cell layers and calculated the % cell rescue (FIG. 2A). […] The cell protective effect of 20 mg/ml HMO is similar to the effect of 10 mM lactose and better than the effect of 10 mM galactose (FIG. 2C). […] Treatment with 20 mg/ml after 90 min of cocultures could still rescue 31±4.7% of the cell layer.

Molecule | protection of the cell layer (in words) | prevention of cytotoxicity (in words) (10 mM) | other results
3-sialyl-lactose [3′SL] | failed to prevent monolayer destruction |  | 
CC(=O)N[C@H]1[C@H]([C@H](O)[C@H](O)CO)O[C@@](OC[C@H]2O[C@@H](O[C@H]3[C@H](O)[C@@H](O)C(O)O[C@@H]3CO)[C@H](O)[C@@H](O)[C@H]2O)(C(=O)O)C[C@@H]1O (stereo partly drawn) [6′SL, 6-sialyl-lactose] | failed to prevent monolayer destruction |  | 
CC(=O)N[C@H]1[C@H](O[C@H]2[C@@H](O)[C@@H](CO)O[C@@H](O[C@H]3[C@H](O)[C@@H](O)C(O)O[C@@H]3CO)[C@@H]2O)O[C@H](CO)[C@@H](O)[C@@H]1O[C@@H]1O[C@H](CO)[C@H](O)[C@H](O)[C@H]1O[C@@H]1O[C@@H](C)[C@@H](O)[C@@H](O)[C@@H]1O (stereo partly drawn) [LNFP1] |  |  | rescue of enterocytes (in words) (5 mg/ml): no effect; cell rescue (10 mM): 16.9±1.7%
CC(=O)N[C@H]1[C@H](O[C@H]2[C@@H](O)[C@@H](CO)O[C@@H](O[C@H]3[C@H](O)[C@@H](O)C(O)O[C@@H]3CO)[C@@H]2O)O[C@H](CO)[C@@H](O)[C@@H]1O[C@@H]1O[C@H](CO)[C@H](O)[C@H](O)[C@H]1O (stereo partly drawn) [LNT, Lacto-N-tetraose] | significantly protected the cell layer |  | cell rescue (5 mg/ml): 49.5±9.2%; cell rescue (10 mM): 79±8.3%
OC[C@H]1O[C@@H](O[C@H]2[C@H](O)[C@@H](O)C(O)O[C@@H]2CO)[C@H](O)[C@@H](O)[C@H]1O (stereo partly drawn) [Lactose, lactose] |  | significantly prevent cytotoxicity | effect on cytotoxicity compared with lactose containing GOS (in words) (Lac concentrations present in each GOS sample): significantly lower
C[C@H](O)[C@@H](O)[C@@H](O)[C@H](O)C=O [fucose] |  | no significant effect | prevention of cytotoxicity (in words) (10 mM, listed as Fucose): do not prevent cytotoxicity
O=C[C@H](O)[C@@H](O)[C@@H](O)[C@H](O)CO [galactose] |  | no significant effect | 
